Series [1] has as its system Caco-2 cells. Conditions: cited from earlier work.
Series [2] has as its system Caco-2 cells. Conditions: 10 μM, 2 h.
The conditions of series [3]: cited from earlier work.

Take `Cl.Cl.N=C(Nc1cccc(CNCCc2cccc(F)c2)c1)c1cccs1` [Compound 3]: in series [1], the “Caco-2 permeability, in words” value is given as “poor”.
Regarding `Cl.Cl.Cl.Nc1ccc2ccc(CCNCCc3cccc(Cl)c3)cc2n1` [Compound 15, 7-[(3-Chlorophenethylamino)ethyl]quinolin-2-amine Dihydrochloride], the “membrane permeability in the apical to basolateral (A→B) direction, in words” value in series [2] was “good”.
On to `Cl.Cl.Nc1ccc2ccc(CCNCCc3cccc(F)c3)cc2n1` [Compound 7, 7-[(3-Fluorophenethylamino)ethyl]quinolin-2-amine Dihydrochloride], for which the “membrane permeability in the apical to basolateral (A→B) direction, in words” value in series [2] is listed as “good”.
As a reminder, the pKa is the negative logarithm of the acid dissociation constant. With `Nc1ccccn1` [2-aminopyridine], the pKa in series [3] is 7.1.

Values taken from PMC3954451 (Journal of Medicinal Chemistry, 2014).
